# Data published in patent US10202361B2, “Pyridazinones as herbicides” (E I DU PONT DE NEMOURS AND COMPANY, priority 2014, dated 2019).
# Read-outs that look alike come from different tables or passages of the source.
# Experiments:
# Type in all cases: in vivo
# [1] = tested on: corn (Zea mays); experiment: Test C pre-/postemergence greenhouse herbicide test; conditions: Zea mays, Corn, read-out: Plant response rating; for plant injury at 31 g/ha: 31 g ai/ha; for plant injury at 62 g/ha: 62 g ai/ha; for plant injury at 125 g/ha: 125 g ai/ha; for plant injury at 250 g/ha: 250 g ai/ha
# Procedure, shortened: (§1)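 Greenhouse pre- and postemergence screen: compounds in a non-phytotoxic solvent mix plus surfactant were applied to soil/sand-sown seeds or to 1- to 4-leaf plants. Visual rating 13–15 d later, 0 (no effect) to 100 (complete control).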
# [2] = tested on: crabgrass, Large (large crabgrass, Digitaria sanguinalis); experiment: as above; conditions: Digitaria sanguinalis, Crabgrass, Large, read-out: Plant response rating; for pest or weed control at 31 g/ha: 31 g ai/ha; for pest or weed control at 62 g/ha: 62 g ai/ha; for pest or weed control at 125 g/ha: 125 g ai/ha; for pest or weed control at 250 g/ha: 250 g ai/ha
# Procedure, shortened: as §1
# [3] = tested on: galium (catchweed bedstraw, Galium aparine); experiment: as above; conditions: Galium, read-out: Plant response rating; for pest or weed control at 31 g/ha: 31 g ai/ha; for pest or weed control at 62 g/ha: 62 g ai/ha; for pest or weed control at 125 g/ha: 125 g ai/ha; for pest or weed control at 250 g/ha: 250 g ai/ha
# Procedure, shortened: as §1
# [4] = tested on: johnsongrass (Sorghum halepense); experiment: as above; conditions: Sorghum halepense, Johnsongrass, read-out: Plant response rating; for pest or weed control at 31 g/ha: 31 g ai/ha; for pest or weed control at 62 g/ha: 62 g ai/ha; for pest or weed control at 125 g/ha: 125 g ai/ha; for pest or weed control at 250 g/ha: 250 g ai/ha
# Procedure, shortened: as §1
# [5] = tested on: kochia (Kochia scoparia); experiment: as above; conditions: Postemergence
# Procedure, shortened: as §1
# [6] = tested on: lambsquarters (Chenopodium album); experiment: as above
# Procedure, shortened: as §1
# [7] = tested on: nutsedge, yellow (yellow nutsedge, Cyperus esculentus); experiment: as above; conditions: Cyperus, Nutsedge, Yellow, read-out: Plant response rating; for pest or weed control at 31 g/ha: 31 g ai/ha; for pest or weed control at 62 g/ha: 62 g ai/ha; for pest or weed control at 125 g/ha: 125 g ai/ha; for pest or weed control at 250 g/ha: 250 g ai/ha
# Procedure, shortened: as §1
# [8] = tested on: oat, wild (wild oat, Avena fatua); experiment: as above; conditions: Postemergence
# Procedure, shortened: as §1
# [9] = tested on: oilseed rape (Brassica napus); experiment: as above; conditions: Oilseed Rape
# Procedure, shortened: as §1
# [10] = tested on: pigweed (Amaranthus retroflexus); experiment: as above; conditions: Amaranthus retroflexus, Pigweed, read-out: Plant response rating; for pest or weed control at 62 g/ha: 62 g ai/ha; for pest or weed control at 125 g/ha: 125 g ai/ha; for pest or weed control at 250 g/ha: 250 g ai/ha
# Procedure, shortened: as §1
# [11] = tested on: ragweed (common ragweed, Ambrosia elatior); experiment: as above; conditions: Ambrosia artemisiifolia, Ragweed, read-out: Plant response rating; for pest or weed control at 31 g/ha: 31 g ai/ha; for pest or weed control at 62 g/ha: 62 g ai/ha; for pest or weed control at 125 g/ha: 125 g ai/ha; for pest or weed control at 250 g/ha: 250 g ai/ha
# Procedure, shortened: as §1
# [12] = tested on: ryegrass, Italian (Italian ryegrass, Lolium multiflorum); experiment: as above; conditions: Lolium multiflorum, Ryegrass, Italian, read-out: Plant response rating; for pest or weed control at 31 g/ha: 31 g ai/ha; for pest or weed control at 62 g/ha: 62 g ai/ha; for pest or weed control at 125 g/ha: 125 g ai/ha; for pest or weed control at 250 g/ha: 250 g ai/ha
# Procedure, shortened: as §1
# [13] = tested on: chickweed (common chickweed, Stellaria media); experiment: Test C postemergence greenhouse herbicide test
structure (smiles),measurement,setting,value
"COc1cc(=O)n(-c2ccc(F)cc2)nc1Cc1ccnc(C(F)(F)F)c1 [Compound 17, 2-(4-fluorophenyl)-5-methoxy-6-[[2-(trifluoromethyl)-4-pyridinyl]methyl]-3 (2H)-pyridazinone]",plant injury at 31 g/ha,"[1]; post-emergence, Postemergence",10%
same,plant injury at 62 g/ha,"[1]; post-emergence, Postemergence",15%
same,plant injury at 125 g/ha,"[1]; post-emergence, Postemergence",15%
same,plant injury at 250 g/ha,"[1]; post-emergence, Postemergence",15%
same,plant injury at 31 g/ha,"[1]; pre-emergence, Preemergence",45%
same,plant injury at 62 g/ha,"[1]; pre-emergence, Preemergence",65%
same,plant injury at 125 g/ha,"[1]; pre-emergence, Preemergence",85%
same,plant injury at 250 g/ha,"[1]; pre-emergence, Preemergence",100%
same,pest or weed control at 31 g/ha,"[2]; post-emergence, Postemergence",10%
same,pest or weed control at 62 g/ha,"[2]; post-emergence, Postemergence",10%
same,pest or weed control at 125 g/ha,"[2]; post-emergence, Postemergence",15%
same,pest or weed control at 250 g/ha,"[2]; post-emergence, Postemergence",40%
same,pest or weed control at 31 g/ha,"[2]; pre-emergence, Preemergence",100%
same,pest or weed control at 62 g/ha,"[2]; pre-emergence, Preemergence",100%
same,pest or weed control at 125 g/ha,"[2]; pre-emergence, Preemergence",100%
same,pest or weed control at 250 g/ha,"[2]; pre-emergence, Preemergence",100%
same,pest or weed control at 31 g/ha,"[3]; post-emergence, Postemergence",60%
same,pest or weed control at 62 g/ha,"[3]; post-emergence, Postemergence",70%
same,pest or weed control at 125 g/ha,"[3]; post-emergence, Postemergence",75%
same,pest or weed control at 250 g/ha,"[3]; post-emergence, Postemergence",85%
same,pest or weed control at 31 g/ha,"[3]; pre-emergence, Preemergence",100%
same,pest or weed control at 62 g/ha,"[3]; pre-emergence, Preemergence",100%
same,pest or weed control at 125 g/ha,"[3]; pre-emergence, Preemergence",100%
same,pest or weed control at 250 g/ha,"[3]; pre-emergence, Preemergence",100%
same,pest or weed control at 31 g/ha,"[4]; post-emergence, Postemergence",5%
same,pest or weed control at 62 g/ha,"[4]; post-emergence, Postemergence",5%
same,pest or weed control at 125 g/ha,"[4]; post-emergence, Postemergence",5%
same,pest or weed control at 250 g/ha,"[4]; post-emergence, Postemergence",65%
same,pest or weed control at 31 g/ha,"[4]; pre-emergence, Preemergence",70%
same,pest or weed control at 62 g/ha,"[4]; pre-emergence, Preemergence",95%
same,pest or weed control at 125 g/ha,"[4]; pre-emergence, Preemergence",98%
same,pest or weed control at 250 g/ha,"[4]; pre-emergence, Preemergence",100%
same,Plant response rating,[5]; 31 g ai/ha,80
same,Plant response rating,[5]; 62 g ai/ha,90
same,Plant response rating,[5]; 125 g ai/ha,90
same,Plant response rating,[5]; 250 g ai/ha,90
same,Plant response rating,"[6]; Postemergence, 31 g ai/ha",75
same,Plant response rating,"[6]; Postemergence, 62 g ai/ha",75
same,Plant response rating,"[6]; Postemergence, 125 g ai/ha",90
same,Plant response rating,"[6]; Postemergence, 250 g ai/ha",90
same,Plant response rating,"[6]; Preemergence, 31 g ai/ha",95
same,Plant response rating,"[6]; Preemergence, 62 g ai/ha",95
same,Plant response rating,"[6]; Preemergence, 125 g ai/ha",95
same,Plant response rating,"[6]; Preemergence, 250 g ai/ha",98
same,pest or weed control at 31 g/ha,"[7]; post-emergence, Postemergence",5%
same,pest or weed control at 62 g/ha,"[7]; post-emergence, Postemergence",5%
same,pest or weed control at 125 g/ha,"[7]; post-emergence, Postemergence",10%
same,pest or weed control at 250 g/ha,"[7]; post-emergence, Postemergence",10%
same,pest or weed control at 31 g/ha,"[7]; pre-emergence, Preemergence",20%
same,pest or weed control at 62 g/ha,"[7]; pre-emergence, Preemergence",30%
same,pest or weed control at 125 g/ha,"[7]; pre-emergence, Preemergence",55%
same,pest or weed control at 250 g/ha,"[7]; pre-emergence, Preemergence",75%
same,Plant response rating,[8]; 31 g ai/ha,10
same,Plant response rating,[8]; 62 g ai/ha,15
same,Plant response rating,[8]; 125 g ai/ha,40
same,Plant response rating,[8]; 250 g ai/ha,45
same,Plant response rating,"[9]; Postemergence, 31 g ai/ha",5
same,Plant response rating,"[9]; Postemergence, 62 g ai/ha",20
same,Plant response rating,"[9]; Postemergence, 125 g ai/ha",25
same,Plant response rating,"[9]; Preemergence, 31 g ai/ha",50
same,Plant response rating,"[9]; Preemergence, 62 g ai/ha",100
same,Plant response rating,"[9]; Preemergence, 125 g ai/ha",100
same,Plant response rating,"[9]; Preemergence, 250 g ai/ha",100
same,pest or weed control at 62 g/ha,"[10]; post-emergence, Postemergence",60%
same,pest or weed control at 125 g/ha,"[10]; post-emergence, Postemergence",60%
same,pest or weed control at 250 g/ha,"[10]; post-emergence, Postemergence",70%
same,pest or weed control at 31 g/ha,"[10]; pre-emergence, Preemergence, 31 g ai/ha",100%
same,pest or weed control at 62 g/ha,"[10]; pre-emergence, Preemergence",100%
same,pest or weed control at 125 g/ha,"[10]; pre-emergence, Preemergence",100%
same,pest or weed control at 250 g/ha,"[10]; pre-emergence, Preemergence",100%
same,pest or weed control at 31 g/ha,"[11]; post-emergence, Postemergence",40%
same,pest or weed control at 62 g/ha,"[11]; post-emergence, Postemergence",70%
same,pest or weed control at 125 g/ha,"[11]; post-emergence, Postemergence",80%
same,pest or weed control at 250 g/ha,"[11]; post-emergence, Postemergence",85%
same,pest or weed control at 31 g/ha,"[11]; pre-emergence, Preemergence",35%
same,pest or weed control at 62 g/ha,"[11]; pre-emergence, Preemergence",65%
same,pest or weed control at 125 g/ha,"[11]; pre-emergence, Preemergence",80%
same,pest or weed control at 250 g/ha,"[11]; pre-emergence, Preemergence",98%
same,pest or weed control at 31 g/ha,"[12]; post-emergence, Postemergence",5%
same,pest or weed control at 62 g/ha,"[12]; post-emergence, Postemergence",5%
same,pest or weed control at 125 g/ha,"[12]; post-emergence, Postemergence",5%
same,pest or weed control at 250 g/ha,"[12]; post-emergence, Postemergence",5%
same,pest or weed control at 31 g/ha,"[12]; pre-emergence, Preemergence",5%
same,pest or weed control at 62 g/ha,"[12]; pre-emergence, Preemergence",10%
same,pest or weed control at 125 g/ha,"[12]; pre-emergence, Preemergence",70%
same,pest or weed control at 250 g/ha,"[12]; pre-emergence, Preemergence",75%
same,Plant response rating,[13]; 31 g ai/ha,70
same,Plant response rating,[13]; 62 g ai/ha,85
same,Plant response rating,[13]; 125 g ai/ha,85
same,Plant response rating,[13]; 250 g ai/ha,95
